Measurements as given in patent publication US20030049709A1, “Programmed cell death and Ich-3” (priority 1996, published 2003).

How the values were obtained:
[1] = test system: poly(ADP-ribose) polymerase (PARP) cleavage; details: cited from earlier work
[2] = test system: apoptosis in an cell-free system; details: read-out: concentration to cause 50% inhibition of apoptosis; cited from earlier work
embryonic fibroblasts = test: Granzyme/perforin induced apoptosis of embryonic fibroblasts (Hoechst dye); format: cell-based, mice; details: Ich-3−/− EF cells; up to 0.8 μg/ml granzyme with 50 ng/ml perforin
Method: FIGS. 9A-9B. Ich-3 deficient EF cells are resistant to Granzyme B and Granzyme 3 induced apoptosis. Embryonic fibroblasts from Ich-3−/− and wild type controls were treated with varying concentrations of granzyme B (FIG. 9A) or granzyme 3 (FIG. 9B) in the presence of a constant amount of perforin (50 ng/ml) for a period of 2 and 8 hrs, respectively. The percentage of apoptosis cells was determined from cell counts after staining with Hoechst dye (Chen et al., 1995). Control wells contained cells alone incubated with or without perforin. Data points represent the percentage of apoptotic cells for a particular dilution of granzyme minus the percentage of apoptotic cells observed in medium alone.
Granule serine protease (GraB) derived from cytotoxic T lymphocytes (CTL) can induce apoptosis in the presence of the pore forming protein perforin (Shi et al., J. Exp. Med. 176:1521-1529 (1992)). To determine the role of ICH-3 in apoptosis induced by GraB, the ability of Ich-3−/− embryonic fibroblasts (EF) to undergo apoptosis following treatment with GraB or Granzyme 3 (Gra3) and perforin was examined. Embryonic fibroblasts from Ich-3−/− mice and wild type littermate controls were treated with varying concentrations of GraB or Gra3 in the presence of a constant amount of perforin (50 ng/ml) for a period of 2 and 8 hrs, respectively.

His-tagged ICH-3 protein = target: T1, His-tagged ICH-3 protein (Mus musculus, UniProt P70343); test: In vitro cleavage assay of ICH-3 by GraB (Western blot); format: biochemical; details: 20 ng GraB, 30° C., 1 hour, 10 mM DTT
T1 construct: An EcoRI fragment from the cDNA clone BSNO12 encoding the full length Ich-3 was subdloned into EcoRI site of pTrcHis (Invitrogen); polyhistidine (six histidines) (N); made in house; host or cells: E. coli
T1 sequence (P70343 81-373): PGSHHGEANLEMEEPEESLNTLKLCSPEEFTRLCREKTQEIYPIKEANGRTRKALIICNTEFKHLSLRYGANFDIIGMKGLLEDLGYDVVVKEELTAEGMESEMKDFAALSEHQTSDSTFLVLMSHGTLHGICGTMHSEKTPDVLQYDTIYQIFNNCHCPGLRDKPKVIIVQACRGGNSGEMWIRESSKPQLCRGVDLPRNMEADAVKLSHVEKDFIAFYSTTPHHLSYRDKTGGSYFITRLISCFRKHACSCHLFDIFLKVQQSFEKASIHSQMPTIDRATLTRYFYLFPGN
Method: FIG. 5. Cleavage of ICH-3 protein by granzyme B. 10 μg His-tagged ICH-3 protein purified from E. coli was incubated with 20 ng of GraB in the presence of 10 mM DTT at 30° C. for 1 hour. The result was detected by Western blotting with a peptide antibody against p20 portion of ICH-3.
For in vitro cleavage of ICH-3 by GraB, […] purified His-tagged ICH-3 protein was incubated with 20 ng of GraB in the presence of 50 mM Tris-HCl, pH 7.5, 0.5 mM EDTA, 0.5 mM Sucrose and 10 mM DTT in a total volume of 10 μl. The mixture was incubated at 30° C. for 1 hour and the cleavage was detected by Western blotting with a peptide antibody against the p20 portion of ICH-3.
To examine whether GraB can cleave ICH-3, a His-tagged ICH-3 protein was expressed in E. coli. His-tagged ICH-3 protein purified from bacteria was mixed with or without active GraB and incubated at 30° C. for 1 hour. The cleavage products were identified by Western blot with a peptide antibodies against the p20 or a monoclonal antibody against p10 portion of ICH-3. As show in FIG. 5, the fulll length ICH-3 band disappeared after incubation with GraB: a new 20 kDa band appeared which is detected by an anti-ICH-3 p20 antibody and a new 10 kDa band which is recognized by a monoclonal antibody against p10 of ICH-3. […] Fragments around 30 kDa are the predicted sizes of the cleavages at Asp 59 and Asp 80. […]

thymocytes = test: Thymocyte apoptosis under other apoptotic stimuli; format: cell-based, mice; details: Ich-3 mutant thymocytes; dexamethasone 1 μM; 10 nM PMA and 500 nM Ca2+ ionophore
Method: Thymocytes are sensitive to several apoptotic stimuli such as irradiation and dexamethasone (Cohen, J. J., et al., Annu. Rev. Immunol. 10:267-293 (1992)). To determine if apoptosis of thymocytes is affected by a mutation in the Ich-3 locus, Ich-3−/− thymocytes were examined for defects in apoptosis using a variety of apoptotic induction signals. Thymocytes isolated from 6-7 week old, wild-type and Ich-3 mutant mice were treated with 500 rads of y-irtadiation, or dexamethasone (1(IM, or 10 nM phorbol myristate acetate (PMA) and 500 nM Ca^2+ ionophore, and cell viability was examined 10 hr or 24 hr after treatment by using FCAS analysis after staining with propidine iodine. (Schwartz, et al., “Cell Death—Methods in Cell Biology.” vol. 46, Academic Press).

[3] = target: ICH-3 protein (mouse) (mouse) (UniProt P70343)

Ac-DEVD-CHO
dose inhibiting PARP cleavage [1]: 1 nM | IC50 [2]: 1 µM

GraB: granule serine protease required for the cytotoxic activity of lymphocytes
apoptosis of EF cells (embryonic fibroblasts): only baseline levels of apoptosis | cleavage of ICH-3 (His-tagged ICH-3 protein): can cleave ICH-3 into p20 and p10

phorbol myristate acetate [PMA and Ca^2+ ionophore]
resistance of thymocytes to induced apoptosis (thymocytes): not resistant

granzyme B (enzyme)
percentage of apoptotic embryonic fibroblasts (Hoechst dye) after GraB and perforin [3]: 40%

B1: Gra3: Granzyme 3 (protein, UniProt P49863 27-264, looked up)
Granzyme K: IIGGKEVSPHSRPFMASIQYGGHHVCGGVLIDPQWVLTAAHCQYRFTKGQSPTVVLGAHSLSKNEASKQTLEIKKFIPFSRVTSDPQSNDIMLVKLQTAAKLNKHVKMLHIRSKTSLRSGTKCKVTGWGATDPDSLRPSDTLREVTVTVLSRKLCNSQSYYNGDPFITKDMVCAGDAKGQKDSCKGDSGGPLICKGVFHAIVSGGHECGVATKPGIYTLLTKKYQTWIKSNLVPPHTN
apoptosis of EF cells (embryonic fibroblasts): only baseline levels of apoptosis
